Experimental data reported in PMC4999848 (Toxins, 2016).
Values joined by “and” are separate entries in the source; they are usually repeats but may differ in a detail not shown here. Equal entries are not always repeated.

What was measured:
trypsin = molecular target: T1, trypsin (Sus scrofa, UniProt P00761); assay: Deacetylation of 3/15ADON by trypsin; assay type: in vitro ADME, porcine; conditions: trypsin 0.35 mg/mL, PBS pH 7.4, 37 °C, substrate 100 μM
T1 construct: purchased Sigma-Aldrich
Method: Stock solutions of DON, 3ADON and 15ADON at 2 mg/mL were prepared in absolute ethanol and stored at −20 °C. For deacetylation assay, 3- or 15ADON were incubated with cells, explants, bacteria or digestive enzymes after being diluted in PBS^++ at a final concentration of 100 μM. PBS^++ solution containing only ethanol (at 1.5% final concentration) or DON (at 100 μM) were used in parallel as negative and positive control, respectively. For cells and explants, deacetylation assay take place in 6-well plates, wells being filled with 2 mL of PBS^++ containing either ethanol, DON, 3- or 15ADON. For fecal bacteria and digestive enzyme assay, deacetylation assay was conducted in 2 mL Eppendorf tubes filled with 1.5 mL of PBS^++ containing either ethanol, DON, 3- or 15ADON. In vitro intestinal digestion by luminal enzymes was performed using porcine enzymes from Sigma-Aldrich and physiological conditions. […] In all cases, aliquots of the reaction solution were collected immediately (i.e., “time zero” sample) or after the indicated time period at 37 °C and analyzed by HPLC. […]
Deacetylation was monitoring both in term of disappearance of 3- or 15ADON and formation of DON. […] Quantification was based on calibration with the corresponding standard using Millinium Software (Waters, Saint Quentin Falavier, France).

A498 cells = assay: Deacetylation of 3/15ADON by A498 cells; assay type: in vitro ADME, human
Method: A498, Caco-2, T84 and HepG2 cells were used as models of human renal, small intestinal, colonic and hepatic cells, respectively. Cells were routinely grown in culture media (Dulbecco’s Modified Eagle Medium (DMEM), DMEM:F12 mixture and Minimum Essential Media (MEM) for A498/Caco-2, T84 and HepG2 cells, respectively) supplemented with 10% fetal calf serum and 1% antibiotics (streptomycin–penicillin solution). Cells were grown in 25 cm^2 ventilated flask maintained at 37 °C in a 5% CO2 incubator. Cells were routinely passed using trypsin-EDTA solution. For deacetylation experiments, cells were seeded onto 6-well plates at an initial density of 200,000 cells/cm^2. HepG2 and A498 were used 3–4 days post-seeding when confluence was reached. Caco-2 and T84 cells were let to differentiate for 10–14 days post-seeding before being used. In all cases, cells were washed three times with sterile phosphate buffer saline PBS^++ (PBS containing 100 mg/L of calcium and magnesium salts) before deacetylation assay.
Stock solutions of DON, 3ADON and 15ADON at 2 mg/mL were prepared in absolute ethanol and stored at −20 °C. […] In all cases, aliquots of the reaction solution were collected immediately (i.e., “time zero” sample) or after the indicated time period at 37 °C and analyzed by HPLC. […]

colonic explant = assay: Deacetylation of 3/15ADON by human colonic explants; assay type: in vitro ADME; conditions: for Disappearance of 3/15ADON, specific activity: colonic explant, 37 °C, substrate 100 μM; for % of deacetylation: colonic explants, 6 h incubation, 100 μM; for Contribution to total deacetylation activity: Colon: percentage of sum of specific activities (Figure 8)
Excerpt: Human tissue samples were obtained from patients undergoing surgery at the Hospital Nord of Marseille, unit of general and gastrointestinal surgery according to a collaborative “clinical transfer” project. The procedures were approved by the French ethic committee (CODECOH n° DC-2011-1319). Patients were from both genders (six men, three women), 31–74 years of age, all of European origin. All patients agree to use their tissues for research purposes. Samples were taken from macroscopically unaffected area as identified by the surgeon for intestinal samples or the pathologist for liver resections. Diagnoses leading to surgery were carcinoma for intestine or liver. After resection, the specimens were placed in ice-cold non-sterile Krebs solution implemented and transferred to the school of medicine on the same campus within 5 min, composition of the Krebs solution being previously described. The tissues were rinsed several times and maintained in oxygenated Krebs during 1 h for recovery before final dissection. Intestinal and hepatic resections were extensively washed and maintained in ice-cold culture media containing 1% streptomycin/penicillin solution and 50 μg/mL gentamycin. Tissues were cleaned from vascular vessels and conjunctive tissue using forceps under binocular microscope. In case of intestinal resection, muscularis and plexus were removed and only epithelial layer was kept. Intestinal and hepatic explants (wet weight of 20–30 mg) were then isolated from the cleaned resections using surgical punch (diameter of […]). […] Finally, the explants were washed 3 times with PBS^++ and transferred into 6-well plates before being used for deacetylation assay.
Stock solutions of DON, 3ADON and 15ADON at 2 mg/mL were prepared in absolute ethanol and stored at −20 °C. For deacetylation assay, 3- or 15ADON were incubated with cells, explants, bacteria or digestive enzymes after being diluted in PBS^++ at a final concentration of 100 μM. PBS^++ solution containing only ethanol (at 1.5% final concentration) or DON (at 100 μM) were used in parallel as negative and positive control, respectively. For cells and explants, deacetylation assay take place in 6-well plates, wells being filled with 2 mL of PBS^++ containing either ethanol, DON, 3- or 15ADON. For fecal bacteria and digestive enzyme assay, deacetylation assay was conducted in 2 mL Eppendorf tubes filled with 1.5 mL of PBS^++ containing either ethanol, DON, 3- or 15ADON. In vitro intestinal digestion by luminal enzymes was performed using porcine enzymes from Sigma-Aldrich and physiological conditions. Briefly, 3- or 15ADON were incubated with pepsin (at 1.6 mg/mL corresponding to 900 U/mL), trypsin (at 0.35 mg/mL corresponding to 6000 U/mL), pancreatic lipase (at 0.75 mg/mL corresponding to 18 U/mL) or pancreatin (at 1.23 mg/mL, lipase activity >10 U/mL, protease activity >100 U/mL, amylase activity >100 U/mL). Except for pepsin for which the digestion was conducted in HCl solution at 10 mM (pH 2.3), in vitro digestion was performed in PBS^++ (pH 7.4). Finally, deacetylation assay was also performed with commercial pooled S9 fractions from human liver, small intestine and kidneys as well as with pure recombinant human CES1 and CES2. S9 fractions and CES1/2 were used at 0.1 mg/mL and 5 μg/mL (corresponding to CES activity >20 U/mL), respectively. In all cases, aliquots of the reaction solution were collected immediately (i.e., “time zero” sample) or after the indicated time period at 37 °C and analyzed by HPLC. […] In all cases, the experiments were conducted in triplicate (n = 3).

[1] = set-up: method as in PMID 26343882; conditions: chickens, after oral or i.v treatment; cited from earlier work
human fecal bacteria = conditions: 48 h incubation; cited from earlier work

T1 sequence (P00761 9-231): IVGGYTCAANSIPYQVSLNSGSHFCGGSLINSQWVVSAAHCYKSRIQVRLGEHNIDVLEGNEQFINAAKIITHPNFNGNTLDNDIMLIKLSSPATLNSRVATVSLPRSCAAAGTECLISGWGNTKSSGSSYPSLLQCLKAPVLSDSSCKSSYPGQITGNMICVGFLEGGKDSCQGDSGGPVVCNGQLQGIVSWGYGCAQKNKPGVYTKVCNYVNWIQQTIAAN

Compound: CC(=O)OC[C@]12[C@H](O)C(=O)C(C)=C[C@H]1O[C@@H]1[C@H](O)C[C@@]2(C)[C@]12CO2 [15ADON, 15-acetyldeoxynivalenol]
- Disappearance of 3/15ADON, specific activity (trypsin): 94 ± 62 pmol/min/mg
- Activity of renal cells on 15ADON (A498 cells; in words): virtually inactive
- Disappearance of 3/15ADON, specific activity (colonic explant): 4.5 pmol/min/mg and 4.5 ± 5.6 pmol/min/mg
- % of deacetylation (colonic explant): 0.2% ± 1.2%
- Contribution to total deacetylation activity: Colon (colonic explant): 0.7%
- Acetylated form in blood [1]: traces of 15ADON are present in the blood

Compound: CC(=O)O[C@@H]1C[C@]2(C)[C@@]3(CO)[C@H](O)C(=O)C(C)=C[C@H]3O[C@H]1[C@@]21CO1 [3ADON, 3-acetyldeoxynivalenol]
- Disappearance of 3/15ADON, specific activity (trypsin): 57 ± 19 pmol/min/mg
- Disappearance of 3/15ADON, specific activity (A498 cells; A498, 37 °C, substrate 100 μM): 79 pmol/min/mg and 79 ± 46 pmol/min/mg
- Disappearance of 3/15ADON, specific activity (colonic explant): 22 ± 13 pmol/min/mg
- % of deacetylation (colonic explant): 4.2% ± 3.1%
- Contribution to total deacetylation activity: Colon (colonic explant): 1.7%
- % deacetylation (human fecal bacteria): 78% ± 30%
